From patent publication US20220315567A1 (priority 2016, published 2022)
Where two headings read alike, the source gives them in different places.

Assays:
human OPRM1 (μ, MOR) [1] = molecular target: T1, human OPRM1 (μ, MOR) (Homo sapiens, UniProt P35372); type: cell-based; settings: for ΔRA of compound: relative activity from EC50 and Emax of β-arrestin vs cAMP, lower RA = more G-protein biased
T1 construct: host or cells: CHO-K1
Summary of the method: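 Activity measured in cell assays for G-protein signaling and for β-arrestin recruitment. A relative activity (RA) value was derived by comparing the two readouts, taking both EC50 and Emax into account.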

human OPRM1 (μ, MOR) [2] = molecular target: T1, human OPRM1 (μ, MOR); experiment: cell-based; settings: for Emax: OPRM1, read-out: cAMP Emax; for EC50: PathHunter human OPRM1 Arrestin CHO-K1 cell line, read-out: cAMP EC50
Method: G-protein signaling was measured via second messenger cAMP modulation. Detection of cAMP modulation was accomplished in the PathHunter human OPRM1 (μ, MOR) Arrestin CHO-K1 cell line using the Dynamic2 cAMP Kit from Cisbio.

human OPRM1 (μ, MOR) [3] = molecular target: T1, human OPRM1 (μ, MOR); experiment: cell-based; settings: for Emax: OPRM1, read-out: β-Arrestin Emax; for EC50: PathHunter human OPRM1 Arrestin CHO-K1 cell line, read-out: β-Arrestin EC50
Summary of the method: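 β-Arrestin-2 recruitment was measured in PathHunter CHO-K1 cells expressing ED-tagged human OPRM1 and EA-fused arrestin. Agonist-driven recruitment restores β-galactosidase activity by enzyme fragment complementation, read by chemiluminescence.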

T1 sequence (P35372 whole entry): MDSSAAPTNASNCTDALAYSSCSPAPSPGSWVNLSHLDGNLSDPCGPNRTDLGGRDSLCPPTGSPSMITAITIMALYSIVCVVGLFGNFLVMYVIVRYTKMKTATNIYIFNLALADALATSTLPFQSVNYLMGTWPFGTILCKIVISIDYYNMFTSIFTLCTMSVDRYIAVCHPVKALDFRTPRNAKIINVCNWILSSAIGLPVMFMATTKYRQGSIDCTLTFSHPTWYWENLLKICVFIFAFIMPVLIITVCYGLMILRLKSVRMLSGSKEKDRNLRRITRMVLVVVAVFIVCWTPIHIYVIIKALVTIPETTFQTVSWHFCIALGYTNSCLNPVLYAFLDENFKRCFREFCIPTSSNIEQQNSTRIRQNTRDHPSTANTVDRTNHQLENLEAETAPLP

Row | SMILES | Bias Factor (ΔRA of compound relative to ΔRA of DAMGO) × 10 (human OPRM1 (μ, MOR) [1]) | ΔRA of compound (human OPRM1 (μ, MOR) [1]) | melting point | Emax (human OPRM1 (μ, MOR) [2]) [%] | EC50 (human OPRM1 (μ, MOR) [2]) [nM] | Emax (human OPRM1 (μ, MOR) [3]) [%] | EC50 (human OPRM1 (μ, MOR) [3]) [nM] | cAMP Emax (human OPRM1 (μ, MOR) [2]) [%] | β-Arrestin Emax (human OPRM1 (μ, MOR) [3]) [%]
1 | CN(C)C(CNC(=O)N[C@@H]1CCc2ccccc2C1)c1ccsc1 (stereo partly shown) [Compound 66] | <−14.83 | <−2.96 | 164 to 166 °C | – | – | – | – | – | –
2 | CN(C)C(CNC(=O)N1CCCc2cc(O)ccc21)c1ccsc1 (stereo not shown) [Compound 53] | −4.47 | −1.93 | 163 °C (dec.) | 120 | 267 | 20.1 | 3790 | – | –
3 | CN(C)C1(CNC(=O)N2Cc3ccc(F)cc3C2)CCOCC1 [Compound 61] | <−14.83 | <−2.96 | 241 to 243 °C | 104 | 1170 | 14.5 | > 100000 | – | –
4 | CN(C)[C@H](CCNC(=O)N[C@@H]1CCc2ccccc2C1)c1ccsc1 [Compound 72] | −0.99 | −1.58 | 147 to 149 °C | – | 197 | – | 2610 | 111.9 | 39.1
5 | CN(C)[C@H](CCNC(=O)N[C@@H]1CCc2ccccc2C1)c1ccsc1 [Compound 71] | −3.66 | −1.85 | 112 to 114 °C | – | 177 | – | 1820 | 71.2 | 10.5
6 | CN(C)C(CNC(=O)N1Cc2ccc(F)cc2C1)c1ccc(O)cc1 (stereo not shown) [Compound 21, N-(2-(Dimethylamino)-2-(4-hydroxyphenyl)ethyl)-5-fluoroisoindoline-2-carboxamide] | – | – | 180 to 185 °C (dec.) | 4.5 | > 100000 | < 1 | > 100000 | – | –
7 | COc1ccc(C(CNC(=O)N2CCCc3cc(F)ccc32)N(C)C)cc1 (stereo not shown) [Compound 68a] | −8.36 | −2.32 | 145 to 146 °C | 94.6 | 167 | 39.9 | 14600 | – | –
8 | CN(C(=O)OC(C)(C)C)C(CNC(=O)N1Cc2ccc(F)cc2C1)c1ccsc1 (stereo not shown) [Compound 34, tert-Butyl (2-(5-fluoroisoindoline-2-carboxamido)-1-(thiophen-3-yl)ethyl)(methyl)carbamate] | – | – | 182 to 184 °C | 2.6 | > 100000 | < 1 | > 100000 | – | –
9 | CN(C)C(CNC(=O)N[C@H]1CCc2ccccc2C1)c1ccsc1 (stereo partly shown) [Compound 67] | <−14.83 | <−2.96 | 165 to 167 °C | – | 13 | – | > 100000 | 50.9 | 2.6
10 | CN(C)[C@@H](CCNC(=O)N[C@H]1CCc2ccccc2C1)c1ccsc1 [Compound 74] | – | – | 144 to 146 °C | 11.2 | > 100000 | < 1 | > 100000 | – | –
11 | CN(C)[C@@H](CCNC(=O)N[C@@H]1CCc2ccccc2C1)c1ccsc1 [Compound 73] | <−14.83 | <−2.96 | 147 to 148 °C | 13.6 | 422 | < 1 | > 100000 | – | –
12 | CN(C)C1(CNC(=O)N[C@@H]2CCc3ccccc3C2)CCCCC1 [Compound 55] | <−14.83 | <−2.96 | 192 to 194 °C | 36.6 | 2850 | < 1 | > 100000 | – | –
13 | CN(C)C1(CNC(=O)N[C@H]2CCc3ccccc3C2)CCCC1 [Compound 65] | – | – | 204 to 206 °C | < 10 | > 100000 | < 1 | > 100000 | – | –
